Earlier results in patent US7928052B2, “Enzyme stabilization” (Dow Global Technologies LLC, priority 2004, dated 2011).

K1, complexation constant B(OH)3+H2L⇄[1:1]−+H3O+ (H2L is fully protonated lactic acid): 1.8×10^−3 | K1′, complexation constant B(OH)3+HL−⇄[1:1]−+H2O (pH 4 to about pH 10, lactic acid having lost a proton): 9.0 M⁻¹
Compound: CC(O)C(=O)O (centres unmarked) [lactic acid]
